Measured values as given in patent USRE42890E1, “Furazanobenzimidazoles” (Basilea Pharmaceutica AG, priority 2003, dated 2011).

The compounds below were run on HeLa (assay: MTS proliferation assay, HeLa). Conditions: 72 h incubation, read-out: MTS proliferation assay IC 50 HeLa.
Assay type: cell-based, human
Description: (§1) Cell lines are cultured in RPMI-1640 tissue culture medium containing either 5% or 10% fetal calf serum, 0.05 mM 2-mercaptoethanol, 2 mM glutamine and penicillin/streptomycin 50 μg/ml (complete medium) (Sigma, Buchs, Switzerland). General growth conditions are 37° C. and 7.5% CO2.
(§2) The following human cell lines (either EGFP transfected or not) are being used: HeLa (ATCC: CCL-2), KB (ATCC: CCL-17), MCF7 (ATCC: HTB-22), SK-BR-3 (ATCC: HTB-30), SK-Mel 1 (ATCC: HTB-67), SK-Mel 28 (ATCC: HTB-72), PC-3 (ATCC: CRL-1435), SW 480 (ATCC: CCL-228), NCl-H460 (ATCC: HTB-177), NCl-H1792 (ATCC: CRL-5895), HT1080 (ATCC: CCL-21), Jurkat (ATCC: TIB-152), Ramos (ATCC: CRL-1596), Raji (ATCC: CCL-86), H9 (ATCC: HTB-176), Hut78 (ATCC: TIB-161), K562 (ATCC: CCL 243), HL-60 (ATCC: CCL 240), U-87MG (ATCC: HTB-14), HepG2 (ATCC: HB-8065), U-2 OS (ATCC: HTB-96), Saos-2 (ATCC: HTB-85), U937 (ATCC: CRL 1593), Hs 578T (ATCC: HTB 126), HBL-100 (ATCC: HTB 124), Molt-4 (ATCC: CRL 1582).
(§3) The assay is performed in 96 well tissue culture plates. The cells (range: 1.5*10^3-10^4) are seeded out in 80 μl complete medium 24 h prior to compound treatment. The test compounds are added in 20 μl complete medium containing max 5% DMSO. The final compound concentrations in the assays are 10 μM, 3 μM, 1 μM and 0.3 μM, respectively. The assay plates are incubated for 72 h at culture conditions. The MTS reagent is prepared according to the manufacturer's protocol (Promega G1111). 20 μl MTS reagent are added to each well, the assay plates are quickly spun and incubated for another 3 h at culture conditions. Subsequently, the plates are shortly shaked and absorption measured with a microplate-reader at 492 nm.

SMILES | IC50 [nM]
Nc1nonc1-c1nc2ccccc2n1CC(=NO)c1ccc(Cl)cc1 (mixture of isomers) [Example 21] | > 1000
COc1ccc(C(Cn2c(-c3nonc3N)nc3ccccc32)=NO)cc1 (mixture of isomers) [Example 20] | > 1000
CON=C(Cn1c(-c2nonc2N)nc2ccccc21)c1ccccc1Cl (mixture of isomers) [Example 34] | > 1000

What follows are compounds tested on adherent cells or suspension cells (assay: Hoechst 33342 nuclear staining (fraction of apoptotic nuclei)). Conditions: H460, conc 0.01 μm.
Assay type: cell-based
Design: key: 0 relating to no activity; 1 relating to weak activity comprising less than 70% of the cells; score 2 relating to strong activity comprising more than 70% of the cells
Description: as §1
This assay is performed in 96 well tissue culture plates. Appropriate number of cells (adherent cells: 3-5*10^3, suspension cells: 8-10*10^3) are being seeded out in 80 μl complete medium. Adherent cells are incubated for 24 h for proper spreading out before addition of test compounds while suspension cells are immediately treated with test compounds after seeding out. The test compounds are added in 20 μl complete medium containing max 5% DMSO. […] After 24 h or 48 h incubation at culture conditions, 10 μl medium containing Hoechst 33342 dye (Sigma B-2261) at 2-5 μg/ml are added to each well. The assay plates are then further incubated for 30 minutes and subsequently analyzed with a standard inverted fluorescence microscope.
The readout allows the determination of the fraction of apoptotic nuclei as well as other morphological criteria specific for apoptosis as a function of the treatment. The following scores are used: 0 relating to no activity, 1 relating to weak activity comprising less than 70% of the cells and score 2 relating to strong activity comprising more than 70% of the cells.

SMILES | Hoechst 33342 nuclear staining score
Nc1nonc1-c1nc2ccccc2n1CC(=NO)c1ccc(Cl)cc1 (mixture of isomers) [Example 21] | 0
COc1ccc(C(Cn2c(-c3nonc3N)nc3ccccc32)=NO)cc1 (mixture of isomers) [Example 20] | 0
CON=C(Cn1c(-c2nonc2N)nc2ccccc21)c1ccccc1Cl (mixture of isomers) [Example 34] | 0

Same assay, conditions: H460, conc 0.1 μm

SMILES | Hoechst 33342 nuclear staining score
Nc1nonc1-c1nc2ccccc2n1CC(=NO)c1ccc(Cl)cc1 (mixture of isomers) [Example 21] | 0
COc1ccc(C(Cn2c(-c3nonc3N)nc3ccccc32)=NO)cc1 (mixture of isomers) [Example 20] | 0
CON=C(Cn1c(-c2nonc2N)nc2ccccc21)c1ccccc1Cl (mixture of isomers) [Example 34] | 0

Same assay, conditions: H460, conc 1 μm

SMILES | Hoechst 33342 nuclear staining score
Nc1nonc1-c1nc2ccccc2n1CC(=NO)c1ccc(Cl)cc1 (mixture of isomers) [Example 21] | 0
COc1ccc(C(Cn2c(-c3nonc3N)nc3ccccc32)=NO)cc1 (mixture of isomers) [Example 20] | 0
CON=C(Cn1c(-c2nonc2N)nc2ccccc21)c1ccccc1Cl (mixture of isomers) [Example 34] | 0

Same assay, conditions: HeLa, conc 0.01 μm

SMILES | Hoechst 33342 nuclear staining score
Nc1nonc1-c1nc2ccccc2n1CC(=NO)c1ccc(Cl)cc1 (mixture of isomers) [Example 21] | 0
COc1ccc(C(Cn2c(-c3nonc3N)nc3ccccc32)=NO)cc1 (mixture of isomers) [Example 20] | 0
CON=C(Cn1c(-c2nonc2N)nc2ccccc21)c1ccccc1Cl (mixture of isomers) [Example 34] | 0

Same assay, conditions: HeLa, conc 0.1 μm

SMILES | Hoechst 33342 nuclear staining score
Nc1nonc1-c1nc2ccccc2n1CC(=NO)c1ccc(Cl)cc1 (mixture of isomers) [Example 21] | 0
COc1ccc(C(Cn2c(-c3nonc3N)nc3ccccc32)=NO)cc1 (mixture of isomers) [Example 20] | 0
CON=C(Cn1c(-c2nonc2N)nc2ccccc21)c1ccccc1Cl (mixture of isomers) [Example 34] | 0

Same assay, conditions: HeLa, conc 1 μm

SMILES | Hoechst 33342 nuclear staining score
Nc1nonc1-c1nc2ccccc2n1CC(=NO)c1ccc(Cl)cc1 (mixture of isomers) [Example 21] | 0
COc1ccc(C(Cn2c(-c3nonc3N)nc3ccccc32)=NO)cc1 (mixture of isomers) [Example 20] | 0
CON=C(Cn1c(-c2nonc2N)nc2ccccc21)c1ccccc1Cl (mixture of isomers) [Example 34] | 0

Same assay, conditions: Jily, conc 0.01 μm

SMILES | Hoechst 33342 nuclear staining score
CON=C(Cn1c(-c2nonc2N)nc2ccccc21)c1ccccc1Cl (mixture of isomers) [Example 34] | 0

Same assay, conditions: Jily, conc 0.1 μm

SMILES | Hoechst 33342 nuclear staining score
CON=C(Cn1c(-c2nonc2N)nc2ccccc21)c1ccccc1Cl (mixture of isomers) [Example 34] | 0

Same assay, conditions: Jily, conc 1 μm

SMILES | Hoechst 33342 nuclear staining score
CON=C(Cn1c(-c2nonc2N)nc2ccccc21)c1ccccc1Cl (mixture of isomers) [Example 34] | 0

Same assay, conditions: Jurkat, conc 0.01 μm

SMILES | Hoechst 33342 nuclear staining score
Nc1nonc1-c1nc2ccccc2n1CC(=NO)c1ccc(Cl)cc1 (mixture of isomers) [Example 21] | 0
COc1ccc(C(Cn2c(-c3nonc3N)nc3ccccc32)=NO)cc1 (mixture of isomers) [Example 20] | 0
CON=C(Cn1c(-c2nonc2N)nc2ccccc21)c1ccccc1Cl (mixture of isomers) [Example 34] | 0

Same assay, conditions: Jurkat, conc 0.1 μm

SMILES | Hoechst 33342 nuclear staining score
Nc1nonc1-c1nc2ccccc2n1CC(=NO)c1ccc(Cl)cc1 (mixture of isomers) [Example 21] | 0
COc1ccc(C(Cn2c(-c3nonc3N)nc3ccccc32)=NO)cc1 (mixture of isomers) [Example 20] | 0
CON=C(Cn1c(-c2nonc2N)nc2ccccc21)c1ccccc1Cl (mixture of isomers) [Example 34] | 0

Same assay, conditions: Jurkat, conc 1 μm

SMILES | Hoechst 33342 nuclear staining score
Nc1nonc1-c1nc2ccccc2n1CC(=NO)c1ccc(Cl)cc1 (mixture of isomers) [Example 21] | 0
COc1ccc(C(Cn2c(-c3nonc3N)nc3ccccc32)=NO)cc1 (mixture of isomers) [Example 20] | 0
CON=C(Cn1c(-c2nonc2N)nc2ccccc21)c1ccccc1Cl (mixture of isomers) [Example 34] | 0

Same assay, conditions: MRC5, conc 0.01 μm

SMILES | Hoechst 33342 nuclear staining score
Nc1nonc1-c1nc2ccccc2n1CC(=NO)c1ccc(Cl)cc1 (mixture of isomers) [Example 21] | 0
COc1ccc(C(Cn2c(-c3nonc3N)nc3ccccc32)=NO)cc1 (mixture of isomers) [Example 20] | 0
CON=C(Cn1c(-c2nonc2N)nc2ccccc21)c1ccccc1Cl (mixture of isomers) [Example 34] | 0

Same assay, conditions: MRC5, conc 0.1 μm

SMILES | Hoechst 33342 nuclear staining score
Nc1nonc1-c1nc2ccccc2n1CC(=NO)c1ccc(Cl)cc1 (mixture of isomers) [Example 21] | 0
COc1ccc(C(Cn2c(-c3nonc3N)nc3ccccc32)=NO)cc1 (mixture of isomers) [Example 20] | 0
CON=C(Cn1c(-c2nonc2N)nc2ccccc21)c1ccccc1Cl (mixture of isomers) [Example 34] | 0

Same assay, conditions: MRC5, conc 1 μm

SMILES | Hoechst 33342 nuclear staining score
Nc1nonc1-c1nc2ccccc2n1CC(=NO)c1ccc(Cl)cc1 (mixture of isomers) [Example 21] | 0
COc1ccc(C(Cn2c(-c3nonc3N)nc3ccccc32)=NO)cc1 (mixture of isomers) [Example 20] | 0
CON=C(Cn1c(-c2nonc2N)nc2ccccc21)c1ccccc1Cl (mixture of isomers) [Example 34] | 0

Same assay, conditions: PBLs, conc 0.01 μm

SMILES | Hoechst 33342 nuclear staining score
Nc1nonc1-c1nc2ccccc2n1CC(=NO)c1ccc(Cl)cc1 (mixture of isomers) [Example 21] | 0
COc1ccc(C(Cn2c(-c3nonc3N)nc3ccccc32)=NO)cc1 (mixture of isomers) [Example 20] | 0
CON=C(Cn1c(-c2nonc2N)nc2ccccc21)c1ccccc1Cl (mixture of isomers) [Example 34] | 0

Same assay, conditions: PBLs, conc 0.1 μm

SMILES | Hoechst 33342 nuclear staining score
Nc1nonc1-c1nc2ccccc2n1CC(=NO)c1ccc(Cl)cc1 (mixture of isomers) [Example 21] | 0
COc1ccc(C(Cn2c(-c3nonc3N)nc3ccccc32)=NO)cc1 (mixture of isomers) [Example 20] | 0
CON=C(Cn1c(-c2nonc2N)nc2ccccc21)c1ccccc1Cl (mixture of isomers) [Example 34] | 0

Same assay, conditions: PBLs, conc 1 μm

SMILES | Hoechst 33342 nuclear staining score
Nc1nonc1-c1nc2ccccc2n1CC(=NO)c1ccc(Cl)cc1 (mixture of isomers) [Example 21] | 0
COc1ccc(C(Cn2c(-c3nonc3N)nc3ccccc32)=NO)cc1 (mixture of isomers) [Example 20] | 0
CON=C(Cn1c(-c2nonc2N)nc2ccccc21)c1ccccc1Cl (mixture of isomers) [Example 34] | 0

These compounds were tested on MRC5 (assay: MTS proliferation assay, MRC5). Conditions: MRC5, 72 h incubation; read-out: MTS proliferation assay IC 50 MRC5.
Assay type: cell-based
Description: as §1, §3

SMILES | IC50 [nM]
Nc1nonc1-c1nc2ccccc2n1CC(=NO)c1ccc(Cl)cc1 (mixture of isomers) [Example 21] | > 1000
COc1ccc(C(Cn2c(-c3nonc3N)nc3ccccc32)=NO)cc1 (mixture of isomers) [Example 20] | > 1000
CON=C(Cn1c(-c2nonc2N)nc2ccccc21)c1ccccc1Cl (mixture of isomers) [Example 34] | > 1000

What follows are compounds tested on Jurkat (assay: MTS proliferation assay, Jurkat). Conditions: 72 h incubation, read-out: MTS proliferation assay IC 50 Jurkat.
Assay type: cell-based, human
Description: as §1, §2, §3

SMILES | IC50 [nM]
Nc1nonc1-c1nc2ccccc2n1CC(=NO)c1ccc(Cl)cc1 (mixture of isomers) [Example 21] | > 1000
COc1ccc(C(Cn2c(-c3nonc3N)nc3ccccc32)=NO)cc1 (mixture of isomers) [Example 20] | 100 to 1000
CON=C(Cn1c(-c2nonc2N)nc2ccccc21)c1ccccc1Cl (mixture of isomers) [Example 34] | > 1000
